Positions of bridges follow the written chain, without caps; N, C: chain ends. Non-standard residues stand in square brackets, D forms with d. Residues, ends and D or L forms follow the SMILES beside them. hArg = N=C(N)NCCCC[C@H](N)C(=O)O; Mpa = O=C(O)CCS

The test system of data set [1] is ICAM1. In words: ICAM1 immunostaining of endothelium on chip. As to conditions: TNF-α stimulated endothelium. The format is cell-based, human. The protocol:
ICAM1 is shown with examples identified by white arrows. One example of a DAPI stained nuclei is shown inside of a white circle.
TNF-alpha Stimulation: In some experiment endothelial cells were stimulate with 50 ng/ml of TNF (Sigma) for 6 hours in order to induce vascular inflammation before blood perfusion.

Data set [2] relates to thrombin anti-thrombin complex (TAT). In words: Thrombin-Anti Thrombin (TAT) measurement via ELISA in chip effluent. The format is cell-based, human. The conditions noted are these: for levels of TAT in outflow: vs blood alone, TNF-α 50 ng/ml 6 h endothelial pre-treatment, sCollagen in blood, hu5C8 240 μg/ml + sCD40L 10 ng/ml. The protocol:
Thrombin-Anti Thrombin (TAT) measurement via ELISA: Thrombin Anti-Thrombin (TAT) levels were analyzed in plasma from blood flowing out of the chip device by removing a sample from the outflow port. Thus TAT levels were evaluated in sample effluents collected from the outflow port of the chip using the Human TAT ELISA Kit (Siemens Healthineers) according to the user manual.
Blood sampled from the Vessel-On-Chip outflow port was analyzed for thrombin anti-thrombin complex (TAT), a factor released upon activation of the coagulation cascade and one of the biomarkers associated with thrombotic events occurring in patients affected with deep vein thrombosis (DVT) or SLE^45,46. TAT is an accepted clinical biomarker for procoagulation^48,49. An enzyme-linked immunosorbent assay (ELISA) was used to quantify the thrombin anti-thrombin complex (TAT).
(An ELISA detects its analyte on a solid surface through an enzyme-linked reagent.)

The test system of data set [3] is platelets in human whole blood perfused over HUVEC endothelium. The data set is described as follows: Vessel-On-Chip blood perfusion, platelet coverage / aggregation by fluorescence imaging (CD41 label). The format is cell-based. The conditions noted are these: for platelet coverage / platelet aggregate formation on the endothelium: vs blood alone, TNF-α 50 ng/ml 6 h, sCollagen 10 μg/ml, hu5C8 240 μg/ml + sCD40L 10 ng/ml. On the procedure:
(§1) Experiments with Blood: Blood Samples And Endothelium: Citrated human blood (Research Blood Components, Cambridge, Mass.) was used within 4 hours of a blood draw in order to minimize pre-analytical effects on platelet function. Before every experiment, each one of the endothelialized channels (i.e. microchannels having an endothelial cell layer) was inspected via light microscopy, Samples showing any sign of discontinuity in the endothelium were discarded.
(§2) Blood Pre-treatment and Perfusion: Formation of IC (preformed IC): Hu5C8, IgG2σ (control) (both provided by Janssen or provided as described herein) For studies with preformed IC, Hu5C8 or IgG2σ as an isotype control were combined with sCD40L (Tonbo Biosciences, San Diego, Calif.) in PBS, in a ratio of I molecule of sCD40L to 3000 molecules of antibody. After 20 minutes incubation at room temperature, the solution was diluted in a blood sample to reach the final concentration of 240 μg/ml (Hu5C8) and 10 ng/ml (sCD40L).
Platelets: Platelets were labeled with human CD41-PE antibody (10 μL/ml. Invitrogen) directly added to the blood and incubated at room temperature for 5 minutes.
Anticoagulant Drug: As an exemplary standard antiplatelet (anticoagulant) drug, Eptifibatide was used as described herein. Eptifibatide has a well-known mechanism of action, such that a bolus of 180 mcg/Kg is frequently used to treat human patients.^54 We estimated that a concentration of 2.4 μM (about 2 μg/ml) is a clinical relevant concentration. As described herein for experiments including Eptifibatide, 2 μg/ml of Eptifibatide were incubated with blood samples for 15 minutes at room temperature before adding sCollagen or before flowing through TNF-inflamed biomimetic vessel.
(§3) Adding Blood to a Vessel-On-Chip And Flow Conditions: A medical grade plastic reservoir was mounted on the chip, then 800 μl of the blood sample was pipetted into the reservoir. The chip was perfused with the blood by withdrawing it at a rate of 60 μl/minute using a syringe pump. The citrated blood was re-calcified 2 minutes after the beginning of each experiment by adding 100 μl/ml of a solution containing 100 mM calcium chloride and 75 mM magnesium chloride to the blood to permit calcium- and magnesium-dependent platelet function and coagulation.
(§4) Staining of Endothelial Cells: Samples were washed twice in cell culture medium and then fixed in acetone/methanol 1:1 at −20° C., for 10 minutes. Each sample was then washed three times in PBS and incubated in blocking solution consisting of PBS and 10% normal donkey serum (Abcam) for one hour. After blocking, samples were washed in PBS twice and then incubated with anti VE-Cadherin monoclonal antibody (Abeam) diluted 1:100 in blocking solution at 4° C. overnight. […] Fluorescence Image analysis: Chips perfused with blood samples were immediately imaged via fluorescence microscopy (Olympus 1X83, 10× objective UPLFLN10X2, Circa-Flash4.0 CMOS Camera). […] Image processing and quantification was performed with an automatic macro compiled in […] and numerical values corresponding to platelet coverage or fibrin florescence were collected and statistically analyzed in Graphpad Prism V7.
Platelet Coverage: A percentage of signal coverage (or Platelet coverage) was computed from the binary image as the ratio of bright pixels to the total number of pixels in the image, Image processing and quantification was performed with an automatic macro compiled in ImageJ in order to ensure unbiased signal measurements. […]

In data set [4] the test system is fibrin deposition from human whole blood on HUVEC endothelium. The data set is described as follows: Vessel-On-Chip blood perfusion, fibrin deposition by fluorescent fibrinogen imaging. The format is cell-based. The conditions noted are these: for fibrin deposition / fibrin signal intensity on the endothelium: vs blood alone, TNF-α 50 ng/ml 6 h, sCollagen 10 μg/ml, hu5C8 240 μg/ml + sCD40L 10 ng/ml. On the procedure: as §1, §3
Visualizing Fibrin Deposition: When analyzing the formation of fibrin, 10 μg/ml of fluorescently labeled fibrinogen (Alexa 488, Invitrogen) was also added to the blood. While fluorescent fibrinogen was barely detected as a diffused fluorescence, fibrin deposition on inflamed cells and sparse clots was easily distinguished since fibrin formed filamentous structures produce a signal intensity that is clearly observed above a background threshold.
as §4, with “hour.” for “hour. After blocking, samples were washed in PBS twice and then incubated with anti VE-Cadherin monoclonal antibody (Abeam) diluted 1:100 in blocking solution at 4° C. overnight.”
Platelet Coverage: A percentage of signal coverage (or Platelet coverage) was computed from the binary image as the ratio of bright pixels to the total number of pixels in the image, Image processing and quantification was performed with an automatic macro compiled in ImageJ in order to ensure unbiased signal measurements. Numerical values corresponding to platelet coverage or fibrin fluorescence (signal intensity) were collected and statistically analyzed in Graphpad Prism V7.

Data set [5] concerns lupus nephritis patients. The conditions noted are these: lupus nephritis clinical study; cited from earlier work.
The test system of data set [6] is human whole blood perfused over HUVEC endothelium. In words: Thrombosis on-chip, combined endpoints (platelet coverage, fibrin deposition, TAT). The format is cell-based. As to conditions: hu5C8 alone 240 μg/mL; sCD40L alone 10 ng/ml; 4 donors; 60 μl/minute. On the procedure: as §2
(§5) To test for a thrombic event, blood was collected from 4 donors, the as blood alone or blood treated with hu5C8 alone (240 μg/mL), sCD40L (10 ng/ml) alone or with combined hu5C8/sCD40L was incubated for 20 minutes at room temperature. Each sample was further incubated for 5 minutes with fluorescent labels for platelets and fibrinogen. As a standard quality control, the control blood was tested for platelet activation using p-selection expression. We confirmed that platelets in control blood were not activated but upon activation by ADP, over 90% of platelet was positive for p-selectin.
Re-calcified blood samples were then perfused through the biomimetic vessel with untreated endothelium at a flow rate of 60 ul/minute for about 10 minutes while sodium citrate was re-introduced through the anticoagulant port. […]

For data set [7], the system named is p-selectin on platelets. In words: Quality control of platelet activation by p-selectin expression. The format is cell-based, human. As to conditions: control blood upon activation by ADP. The protocol: as §5
Setting [8] is: Eptifibatide 2 ug/ml, endothelium inflamed with TNF-α, n=4.

Take TNF-α: the “expression of ICAM1 in the endothelium compared to the control” value in data set [1] is listed as “increased expression”. Moreover, the “levels of TAT in outflow” value in data set [2] is “significantly increased”. In addition, the “platelet coverage / platelet aggregate formation on the endothelium” value in data set [3] is “increased”. For the same molecule, the “fibrin deposition / fibrin signal intensity on the endothelium” value in data set [4] was “increased”.

With “sCollagen: soluble collagen (Soluble Calf Skin, Type I), a standard platelet activator”, in data set [2], the “levels of TAT in outflow” value is “minimally increased”. In data set [3], the “platelet coverage / platelet aggregate formation on the endothelium” value is listed as “increased”. Further, in data set [4], the “fibrin deposition / fibrin signal intensity on the endothelium” value is recorded as “increased”.

As for `N=C(N)NCCCC[C@@H]1NC(=O)CCSSC[C@@H](C(N)=O)NC(=O)[C@@H]2CCCN2C(=O)[C@H](Cc2c[nH]c3ccccc23)NC(=O)[C@H](CC(=O)O)NC(=O)CNC1=O` [Eptifibatide] ([Mpa][hArg]GDWPC-NH2; disulfide 1-7), the “effect on TAT increment associated with TNF-α-induced inflammation” value in data set [2] (Eptifibatide 2 ug/ml, TNF-α pre-treated endothelium) is “did not inhibit”. In addition, the “effect on TAT increment due to sCollagen treatment” value in data set [2] (Eptifibatide 2 ug/ml, sCollagen-treated blood) is on record as “entirely suppressed”. Further, the “inhibition of platelet aggregation” value in data set [3] (setting [8]) is on record as “significantly inhibited”. Further, the “inhibitory effect on platelet aggregation and fibrin clot formation” value in data set [3] (Eptifibatide 2 ug/ml, following treatment with sCollagen, n=4) is “comparatively modest”. In data set [3] (Eptifibatide 2 ug/ml, n=4), the “platelet adhesion (image analysis of multiple experiments)” value is “completely inhibited”. For the same molecule, the “inhibition of fibrin clot formation” value in data set [4] (setting [8]) is “significantly inhibited”. Besides, in data set [4] (Eptifibatide 2 ug/ml, samples treated with TNF-α), the “fibrin signal remaining under Eptifibatide” value is “significant amount of fibrin signal was still detectable”.

“hu5C8: humanized monoclonal IgG1 antibody against CD40L (anti-CD154)”: in data set [5], the “incidence of thromboembolitic events” value is 2/18. In addition, the “treatment-related effects compared to untreated blood” value in data set [6] was “no significant treatment-related effects”.

As to `Nc1ncnc2c1ncn2[C@@H]1O[C@H](COP(=O)(O)OP(=O)(O)O)[C@@H](O)[C@H]1O` [ADP], the “platelets positive for p-selectin” value in data set [7] is recorded as “over 90%”.

The values are drawn from US20180017584A1, “ADDITIVE CHANNELS” (Emulate Inc., priority 2016, published 2018).
